Experiments:
[1] = test system: PANMI (wild proso millet); assay: Pre-emergence herbicidal activity, warm season; assay type: in vivo, Panicum miliaceum; settings: for Pre-emergence activity (GR80) PANMI: GR80 = lowest tested rate (300, 100, 30, 10 g/ha) with 80% or greater inhibition, approx. 14 days after treating, 30/21° C.
Procedure, shortened: (§1)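 Activity is expressed as the rate giving 80% inhibition, with 300, 100, 30 and 10 g/ha typically tested. An asterisk marks activity short of 80% at the top rate. Warm-season grasses were held at 30/21 °C; cool-season blackgrass and wild buckwheat at 18/13 °C; scoring at about 14 days.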

[2] = test system: SORVU (shattercane); assay: Pre-emergence herbicidal activity, warm season; assay type: in vivo, Sorghum vulgare; settings: for Pre-emergence activity (GR80) SORVU: GR80 = lowest tested rate (300, 100, 30, 10 g/ha) with 80% or greater inhibition, approx. 14 days after treating, 30/21° C.
Procedure, shortened: as §1

[3] = test system: DIGSA (large crabgrass); assay: Pre-emergence herbicidal activity, warm season; assay type: in vivo, Digitaria sanguinalis; settings: for Pre-emergence activity (GR80) DIGSA: GR80 = lowest tested rate (300, 100, 30, 10 g/ha) with 80% or greater inhibition, approx. 14 days after treating, 30/21° C.
Procedure, shortened: as §1

[4] = test system: DIGSA (large crabgrass); assay: Pre-plant incorporated (PPI) herbicidal activity, warm season; assay type: in vivo, Digitaria sanguinalis; settings: for PPI activity GR80, DIGSA: pre-plant incorporated, lowest tested rate with 80% or greater inhibition, about 14 days
Description: (§2) In another set of tests, the pre-plant incorporated (PPI) activity of compounds of this invention was evaluated on the same species as for the pre-emergence tests described above. In the PPI tests the following procedure, designed to simulate PPI application, was used.
(§3) A pre-prepared topsoil mixture (described above) was placed in a pot and compacted to a depth of 1.0 to 1.25 cm from the top of the pot. Seeds of each of several monocotyledonous and dicotyledonous annual plant species were placed on top of the soil. A sufficient quantity of soil to cover the seeds and level fill the pot was weighed into an open container. A known amount of the test compound was dissolved or suspended in an organic solvent and applied by spraying to this cover soil. The cover soil was thoroughly mixed to distribute the test compound throughout the cover soil, and was then applied as a cover layer over the seeds. Untreated soil was used as a cover layer for control pots. After treatment the plants were placed in a greenhouse where they received 0.64 cm of overhead irrigation. All subsequent watering consisted of a light overhead mist and/or subirrigation as needed for germination and growth. Tables 9 and 10 below relate to warm season plant species which were placed after pre-emergence treatment in a greenhouse with a 30/21° C. day/night temperature regime. Tables 11 and 12 below relates to cool season plant species placed after pre-emergence treatment in a greenhouse or growth chamber with an 18/13° C. day/night temperature regime. Only the compounds of Examples 1, 6, 8, 11, 13 and 15-20 were included in PPI tests.
(§4) Approximately 14 days after planting and treating, the plants were observed and herbicidal efficacy recorded as percent inhibition by comparison with untreated plants.

[5] = test system: POLCO (wild buckwheat); assay: Pre-plant incorporated (PPI) herbicidal activity, cool season; assay type: in vivo, Polygonum convolvulus; settings: for PPI activity GR80, POLCO: pre-plant incorporated, lowest tested rate with 80% or greater inhibition, about 14 days
Description: as §2, §3, §4

[6] = test system: BROTE (downy brome); assay: as above; assay type: in vivo, Bromus tectorum; settings: for PPI activity GR80, BROTE: pre-plant incorporated, lowest tested rate with 80% or greater inhibition, about 14 days
Description: as §2, §3, §4

[7] = test system: SETVI (green foxtail); assay: Post-emergence herbicidal activity, cool season; assay type: in vivo, Setaria viridis; settings: abraded plants sprayed at 300, 100, 30 and 10 g/ha; about 14 days after treatment
Procedure, shortened: (§5)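 Seeds sown in topsoil, covered with 50% topsoil/50% Rediearth™, subirrigated. At 9 to 14 days, foliage abraded, then sprayed at 300, 100, 30 or 10 g/ha in acetone/water 50:50. Plants held at 18/13° C. day/night, rated for % inhibition at ~14 days, GR80 assigned.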

[8] = test system: LOLMG (annual ryegrass); assay: Post-emergence herbicidal activity, cool season; assay type: in vivo, Lolium multiflorum; settings: abraded plants sprayed at 300, 100, 30 and 10 g/ha; about 14 days after treatment
Procedure, shortened: as §5

[9] = test system: BROTE (downy brome); assay: Post-emergence herbicidal activity, cool season; assay type: in vivo, Bromus tectorum; settings: abraded plants sprayed at 300, 100, 30 and 10 g/ha; about 14 days after treatment
Procedure, shortened: as §5

[10] = test system: AVEFA (wild oat); assay: Post-emergence herbicidal activity, cool season; assay type: in vivo, Avena fatua; settings: abraded plants sprayed at 300, 100, 30 and 10 g/ha; about 14 days after treatment
Procedure, shortened: as §5

[11] = weed, PPI application, 100 g/ha
[12] = weed, PPI application, 300 g/ha
[13] = weed, PPI application, 900 g/ha

## CCN(CC)C(=O)n1cnc(S(=O)(=O)C(F)(F)Br)n1 [Example 1, 3-(bromodifluoromethylsulfonyl)-1-(N,N-diethylcarbamoyl)-1,2,4-triazole]
[1]
  Pre-emergence activity (GR80) PANMI: 100 g/ha
[1]; Panicum miliaceum, pre-emergence application, 10 g/ha, read-out: Percent inhibition, weed PANMI
  inhibition at 10 g/ha: 0%
[1]; Panicum miliaceum, pre-emergence application, 30 g/ha, read-out: Percent inhibition, weed PANMI
  inhibition at 30 g/ha: 0%
[1]; Panicum miliaceum, pre-emergence application, 100 g/ha, read-out: Percent inhibition, weed PANMI
  inhibition at 100 g/ha: 30%
[1]; Panicum miliaceum, pre-emergence application, 300 g/ha, read-out: Percent inhibition, weed PANMI
  inhibition at 300 g/ha: 100%
[1]; Panicum miliaceum, pre-emergence application, 900 g/ha, read-out: Percent inhibition, weed PANMI
  inhibition at 900 g/ha: 90%
[2]
  Pre-emergence activity (GR80) SORVU: * (activity observed, at least at highest rate, but <80% inhibition)
[2]; Sorghum bicolor, pre-emergence application, 10 g/ha, read-out: Percent inhibition, weed SORVU
  inhibition at 10 g/ha: 0%
[2]; Sorghum bicolor, pre-emergence application, 30 g/ha, read-out: Percent inhibition, weed SORVU
  inhibition at 30 g/ha: 0%
[2]; Sorghum bicolor, pre-emergence application, 100 g/ha, read-out: Percent inhibition, weed SORVU
  inhibition at 100 g/ha: 60%
[2]; Sorghum bicolor, pre-emergence application, 300 g/ha, read-out: Percent inhibition, weed SORVU
  inhibition at 300 g/ha: 80%
[2]; Sorghum bicolor, pre-emergence application, 900 g/ha, read-out: Percent inhibition, weed SORVU
  inhibition at 900 g/ha: 95%
[3]; Digitaria sanguinalis, pre-emergence application, 10 g/ha, read-out: Percent inhibition, weed DIGSA
  inhibition at 10 g/ha: 0%
[3]; Digitaria sanguinalis, pre-emergence application, 30 g/ha, read-out: Percent inhibition, weed DIGSA
  inhibition at 30 g/ha: 60%
[3]; Digitaria sanguinalis, pre-emergence application, 100 g/ha, read-out: Percent inhibition, weed DIGSA
  inhibition at 100 g/ha: 100%
[3]; Digitaria sanguinalis, pre-emergence application, 300 g/ha, read-out: Percent inhibition, weed DIGSA
  inhibition at 300 g/ha: 100%
[3]; Digitaria sanguinalis, pre-emergence application, 900 g/ha, read-out: Percent inhibition, weed DIGSA
  inhibition at 900 g/ha: 100%
[3]
  Pre-emergence activity (GR80) DIGSA: 30 g/ha
[4]; Digitaria sanguinalis, PPI application, 10 g/ha, read-out: Percent inhibition DIGSA
  inhibition at 10 g/ha: 80%
[4]; Digitaria sanguinalis, PPI application, 30 g/ha, read-out: Percent inhibition DIGSA
  inhibition at 30 g/ha: 95%
[4]; Digitaria sanguinalis, PPI application, 100 g/ha, read-out: Percent inhibition DIGSA
  inhibition at 100 g/ha: 100%
[4]; Digitaria sanguinalis, PPI application, 300 g/ha, read-out: Percent inhibition DIGSA
  inhibition at 300 g/ha: 100%
[4]; Digitaria sanguinalis, PPI application, 900 g/ha, read-out: Percent inhibition DIGSA
  inhibition at 900 g/ha: 100%
[4]
  PPI activity GR80, DIGSA: 100 g/ha
[5]; Fallopia convolvulus, weed, PPI application, 30 g/ha, read-out: Percent inhibition POLCO
  inhibition at 30 g/ha: 30%
[5]; Fallopia convolvulus, weed, PPI application, 100 g/ha, read-out: Percent inhibition POLCO
  inhibition at 100 g/ha: 90%
[5]; Fallopia convolvulus, weed, PPI application, 300 g/ha, read-out: Percent inhibition POLCO
  inhibition at 300 g/ha: 100%
[5]; Fallopia convolvulus, weed, PPI application, 900 g/ha, read-out: Percent inhibition POLCO
  inhibition at 900 g/ha: 100%
[5]
  PPI activity GR80, POLCO: * (activity observed, at least at highest rate, but <80% inhibition)
[6]; Bromus tectorum, weed, PPI application, 30 g/ha, read-out: Percent inhibition BROTE
  inhibition at 30 g/ha: 0%
[6]; Bromus tectorum, weed, PPI application, 100 g/ha, read-out: Percent inhibition BROTE
  inhibition at 100 g/ha: 20%
[6]; Bromus tectorum, weed, PPI application, 300 g/ha, read-out: Percent inhibition BROTE
  inhibition at 300 g/ha: 50%
[6]; Bromus tectorum, weed, PPI application, 900 g/ha, read-out: Percent inhibition BROTE
  inhibition at 900 g/ha: 100%
[6]
  PPI activity GR80, BROTE: 300 g/ha
[7]
  Post-emergence activity GR80, SETVI: [empty]
[8]
  Post-emergence activity GR80, LOLMG: [empty]
[9]
  Post-emergence activity GR80, BROTE: [empty]
[10]
  Post-emergence activity GR80, AVEFA: [empty]

## CCN(CC)C(=O)n1cnc(S(=O)(=O)C(F)(F)SCC(=O)OC)n1 [Example 11]
[1]
  Pre-emergence activity (GR80) PANMI: 300 g/ha
[2]
  Pre-emergence activity (GR80) SORVU: * (activity observed, at least at highest rate, but <80% inhibition)
[4]; PPI application, 10 g/ha
  Percent inhibition DIGSA: 0%
[4]; PPI application, 30 g/ha
  Percent inhibition DIGSA: 0%
[4]; PPI application, 100 g/ha
  Percent inhibition DIGSA: 70%
[4]; PPI application, 300 g/ha
  Percent inhibition DIGSA: 90%
[4]; PPI application, 900 g/ha
  Percent inhibition DIGSA: 100%
[4]
  PPI activity GR80, DIGSA: 300 g/ha
[5]
  PPI activity GR80, POLCO: * (activity observed, at least at highest rate, but <80% inhibition)
[5]; weed, PPI application, 10 g/ha
  Percent inhibition POLCO: 0%
[5]; weed, PPI application, 30 g/ha
  Percent inhibition POLCO: 0%
[5]; [11]
  Percent inhibition POLCO: 0%
[5]; [12]
  Percent inhibition POLCO: 0%
[5]; [13]
  Percent inhibition POLCO: 30%
[6]
  PPI activity GR80, BROTE: [empty]
[6]; weed, PPI application, 10 g/ha
  Percent inhibition BROTE: 0%
[6]; weed, PPI application, 30 g/ha
  Percent inhibition BROTE: 0%
[6]; [11]
  Percent inhibition BROTE: 0%
[6]; [12]
  Percent inhibition BROTE: 0%
[6]; [13]
  Percent inhibition BROTE: 20%
[7]
  Post-emergence activity GR80, SETVI: [empty]
[8]
  Post-emergence activity GR80, LOLMG: [empty]
[9]
  Post-emergence activity GR80, BROTE: [empty]
[10]
  Post-emergence activity GR80, AVEFA: [empty]

## CCN(CC)C(=O)n1cnc(S(=O)(=O)C(F)(F)SCCOC)n1 [Example 13]
[1]
  Pre-emergence activity (GR80) PANMI: 300 g/ha
[2]
  Pre-emergence activity (GR80) SORVU: * (activity observed, at least at highest rate, but <80% inhibition)
[4]; PPI application, 10 g/ha
  Percent inhibition DIGSA: 0%
[4]; PPI application, 30 g/ha
  Percent inhibition DIGSA: 75%
[4]; PPI application, 100 g/ha
  Percent inhibition DIGSA: 100%
[4]; PPI application, 300 g/ha
  Percent inhibition DIGSA: 100%
[4]; PPI application, 900 g/ha
  Percent inhibition DIGSA: 100%
[4]
  PPI activity GR80, DIGSA: 30 g/ha
[5]
  PPI activity GR80, POLCO: * (activity observed, at least at highest rate, but <80% inhibition)
[5]; weed, PPI application, 10 g/ha
  Percent inhibition POLCO: 0%
[5]; weed, PPI application, 30 g/ha
  Percent inhibition POLCO: 50%
[5]; [11]
  Percent inhibition POLCO: 40%
[5]; [12]
  Percent inhibition POLCO: 80%
[5]; [13]
  Percent inhibition POLCO: 90%
[6]
  PPI activity GR80, BROTE: * (activity observed, at least at highest rate, but <80% inhibition)
[6]; weed, PPI application, 10 g/ha
  Percent inhibition BROTE: 0%
[6]; weed, PPI application, 30 g/ha
  Percent inhibition BROTE: 0%
[6]; [11]
  Percent inhibition BROTE: 10%
[6]; [12]
  Percent inhibition BROTE: 20%
[6]; [13]
  Percent inhibition BROTE: 85%
[7]
  Post-emergence activity GR80, SETVI: [empty]
[8]
  Post-emergence activity GR80, LOLMG: [empty]
[9]
  Post-emergence activity GR80, BROTE: [empty]
[10]
  Post-emergence activity GR80, AVEFA: [empty]

## CCN(CC)C(=O)n1cnc(S(=O)(=O)C(F)(F)C(F)(F)SC)n1 [Example 14]
[1]
  Pre-emergence activity (GR80) PANMI: 100 g/ha
[2]
  Pre-emergence activity (GR80) SORVU: * (activity observed, at least at highest rate, but <80% inhibition)
[3]
  Pre-emergence activity (GR80) DIGSA: 100 g/ha
[7]
  Post-emergence activity GR80, SETVI: [empty]
[8]
  Post-emergence activity GR80, LOLMG: [empty]
[9]
  Post-emergence activity GR80, BROTE: [empty]
[10]
  Post-emergence activity GR80, AVEFA: [empty]
